Test system in the first series: not listed separately
The series is described as follows: Metabolic stability on liver S9 of rat. The settings on record: rat liver S9, test compound 1 μM, 37° C.
Protocol: The compound of the present invention is added to liver S9 solution, and the mixture is incubated at 37±0.5° C. for 5 minutes to 2 hours. By quantitatively analyzing at the definite interval the amount of the compound of the present invention remaining in the liver S9 solution with HPLC (high performance liquid chromatography), etc., the constant of quenching velocity is calculated and the half life is calculated.
The reaction on river S9 of a rat was carried out on a 96-well plate by using a robot for screening by Tecan Company. S9 solution was prepared by adding to 10 ml of liver S9 of a rat, 20 ml of 250 mM Kpi (pH 7.4) and 20 ml of deionized water. Cofactor solution was prepared by dissolving NADPH (220 mg) in deionized water (40.5 ml) to give finally a 6 mM solution. IS (Internal Standard) solution was prepared by adding 300 μL of IS solution (1 mM DMSO solution) to 30 ml of acetonitrile solution (100 times dilution). The test compound (1 μM DMSO solution) was dissolved in an incubator at 37° C., 35 μL of it was poured into each well of a 96-well plate (24 samples/plate and then, plates (a sample plate, a 96 well-plate for dilution, deep well plates for reaction and recovering, a plate for extraction of the solid phase) and the test samples (S9 solution, Cofactor solution, IS (Internal Standard) solution, Stop solution, acetonitrile for elution) were set to the specified position in the booth of the robot. The reaction started (the concentration of the test compound was 1 μM) and the mixture was incubated at 37° C. under stirring. The solid phase was extracted and at the same time the internal standard for analysis was added. To the recovered sample (200 μL/well) was added 50 μL of acetonitrile per each well and to 2 plates of FALCON Deep well were poured 100 μL of the solution per well. By subjecting to the LC/MS analysis, the chromatogram of the test sample and the internal standard were described and the peak area was calculated. And then, the stability (residual rate after reaction) was calculated by the internal standard method.
Compound `COC(=O)CCc1nc(N)c2nc(O)n(Cc3ccc(CC(=O)OC)cc3)c2n1` [Example 67, 8-Hydroxy-2-(2-methoxycarbonylethyl)-9-(4-methoxycarbonylmethylbenzyl)adenine] gave a Residual rate of 0%. On the same count and under the same terms, for `CCCCOc1nc(N)c2nc(O)n(Cc3ccc(CCC(=O)OCC)cc3)c2n1` [Example 86, 2-Butoxy-9-(4-ethoxycarbonylethylbenzyl)-8-hydroxyadenine] the value was 18%; for `COC(=O)CCc1nc(N)c2nc(O)n(Cc3ccc(C)nc3)c2n1` [Example 66, 8-Hydroxy-2-methoxycarbonylethyl-9-{(6-methyl-3-pyridyl)methyl}adenine], 0%; for `CCOC(=O)CCCCSc1nc(N)c2nc(O)n(Cc3ccccc3)c2n1` [Example 57, 9-Benzyl-2-(4-ethoxycarbonylbutyl)thio-8-hydroxyadenine], 3%. Same read-out and setting: the value for `Nc1nc(SCC(=O)N2CCOCC2)nc2c1nc(O)n2Cc1ccccc1` [Example 52, 9-Benzyl-8-hydroxy-2-(morphorinocarbonylmethyl)thioadenine] was 24%. `CCCCOc1nc(N)c2nc(O)n(Cc3ccc(CC(=O)OCCN(C)C)cc3)c2n1.Cl` [Example 72, 2-Butoxy-8-hydroxy-9-{4-(2-dimethylaminoethoxycarbonyl)methylbenzyl}adenine hydrochloride] showed a Residual rate of 4%.

`CCCCOc1nc(N)c2nc(O)n(Cc3ccc(C(=O)OCc4ccccc4)cc3)c2n1` [Example 14, 2-Butoxy-8-hydroxy-9-(4-benzyloxycarbonylbenzyl)adenine] returned a Residual rate of 22%. `CCCCOc1nc(N)c2nc(O)n(Cc3ccc(OC4CCOC4=O)cc3)c2n1` (stereo not drawn) [Example 94, 2-Butoxy-9-{4-(γ-butyrolactonyloxy)benzyl}-8-hydroxyadenine] had a Residual rate of 2%.

In a further series the test system is cells of rat spleen. The series is described as follows: cells. The series is classed as cell-based, SD rat.
Settings: not given
As to `COC(=O)CCc1nc(N)c2nc(O)n(Cc3ccc(C)nc3)c2n1` [Example 66, 8-Hydroxy-2-methoxycarbonylethyl-9-{(6-methyl-3-pyridyl)methyl}adenine], the “Minimum effective concentration (interferon inducing activity)” value was found to be 1 nM. Still for that read-out and setting: the value for `CCCCOc1nc(N)c2nc(O)n(Cc3ccc(SC4CCOC4=O)nc3)c2n1` (stereo not drawn) [Example 93] was 3 nM.

Still in this series, the particulars now being: 24 h, read-out: Minimum effective concentration (interferon inducing activity).
For `Nc1nc(SCc2ccc(C(=O)O)cc2)nc2c1nc(O)n2Cc1ccccc1` [compound 35, 9-Benzyl-8-hydroxy-2-[(4-carboxybenzyl)thio]adenine, reference compound], the minimal effective concentration turned out to be 1 µM. Same read-out and setting: the value for `Cc1ccc(Cn2c(O)nc3c(N)nc(CCC(=O)O)nc32)cn1` [compound 17, reference compound] was 0.3 µM; that for `COC(=O)c1ccc(CSc2nc(N)c3nc(O)n(Cc4ccccc4)c3n2)cc1` [Example 104, 9-Benzyl-8-hydroxy-2-[(4-methoxycarbonylbenzyl)thio]adenine] was 0.1 µM. On the same count and under the same terms, for `COC(=O)CCc1nc(N)c2nc(O)n(Cc3ccc(CC(=O)OC)cc3)c2n1` [Example 67, 8-Hydroxy-2-(2-methoxycarbonylethyl)-9-(4-methoxycarbonylmethylbenzyl)adenine] the value was 0.001 µM.

With `Nc1nc(SCc2cccc(C(=O)O)c2)nc2c1nc(O)n2Cc1ccccc1` [compound 34, 9-Benzyl-8-hydroxy-2-[(3-carboxybenzyl)thio]adenine, reference compound], the minimal effective concentration came to 0.3 µM. Still for that read-out and setting: the value for `Nc1nc(CCC(=O)O)nc2c1nc(O)n2Cc1ccc(CC(=O)O)cc1` [compound 18, 2-(2-Carboxylethyl)-9-(4-carboxylmethylbenzyl)-8-hydroxyadenine, reference compound] was 3 µM; that for `Nc1nc(SCc2cccc(CC(=O)O)c2)nc2c1nc(O)n2Cc1ccccc1` [compound 36, 9-Benzyl-8-hydroxy-2-[(3-carboxymethylbenzyl)thio]adenine, reference compound] was 3 µM.

For the compound `CCCCOc1nc(N)c2nc(O)n(Cc3ccc(CC(=O)O)o3)c2n1` [compound 19, 2-Butoxy-9-(5-carboxylmethylfurfuryl)-8-hydroxyadenine, reference compound], the minimal effective concentration turned out to be 0.03 µM. For `CCCCOc1nc(N)c2nc(O)n(Cc3ccc(OCC(=O)OC)c(Br)c3)c2n1` [Example 23, 2-Butoxy-8-hydroxy-9-{3-bromo-4-(methoxycarbonylmethoxy)benzyl}adenine], the minimal effective concentration worked out at 0.1 µM.

Turning to `COCCOc1nc(N)c2nc(O)n(Cc3cccc(CC(=O)O)c3)c2n1` [Comparative example 27, 9-(3-Carboxymethylbenzyl)-8-hydroxy-2-(2-methoxyethoxy)adenine, reference compound], the minimal effective concentration was 0.3 µM. With `CCCCOc1nc(N)c2nc(O)n(Cc3ccc(C(C)C(=O)O)cc3)c2n1` (stereo not drawn) [compound 31, 2-Butoxy-8-hydroxy-9-[4-(1-carboxyethyl)benzyl]adenine, reference compound], the minimal effective concentration stood at 0.03 µM. The same measure, in the same setting: the value for `CCCCOc1nc(N)c2nc(O)n(Cc3ccc(C(N)=O)nc3)c2n1` [Example 83, 2-Butoxy-9-{(6-carbamoyl-3-pyridyl)methyl}-8-hydroxyadenine] was 0.0003 µM; that for `CCCCOc1nc(N)c2nc(O)n(Cc3ccc(CC(N)=O)cc3)c2n1` [Example 76, 2-Butoxy-8-hydroxy-9-(4-carbamoylmethylbenzyl)adenine] was 0.0001 µM.

As for `CCCCOc1nc(N)c2nc(O)n(Cc3ccc(N4CCC(C(=O)OC)CC4)nc3)c2n1` [Example 87, 2-Butoxy-8-hydroxy-9-{6-(4-methoxycarbonyl-1-piperidyl)-3-pyridylmethyl}adenine], the minimal effective concentration was found to be 0.001 µM.

As to `CCCCOc1nc(N)c2nc(O)n(Cc3ccc(N4CCC(C(=O)O)CC4)nc3)c2n1` [compound 21, reference compound], the minimal effective concentration came out at 0.003 µM.

`CCCCOc1nc(N)c2nc(O)n(Cc3cccc(CCC(=O)O)c3)c2n1` [compound 20, reference compound]: the minimal effective concentration amounted to 0.03 µM. On the same count and under the same terms, for `CCCCOc1nc(N)c2nc(O)n(Cc3ccc(C(=O)O)c(C(=O)O)c3)c2n1` [compound 23, 2-Butoxy-9-(3,4-dicarboxylbenzyl)-8-hydroxyadenine, reference compound] the value was 0.1 µM; for `Nc1nc(CCC(=O)O)nc2c1nc(O)n2Cc1ccccc1` [Comparative example 15, 9-Benzyl-2-(2-carboxyethyl)-8-hydroxyadenine, reference compound], 1 µM; for `CCCCOc1nc(N)c2nc(O)n(Cc3ccc(CC(=O)NC)cc3)c2n1` [Example 77, 2-Butoxy-8-hydroxy-9-(4-methylcarbamoylmethylbenzyl)adenine], 0.0003 µM.

On to `Nc1nc(CC(=O)N2CCOCC2)nc2c1nc(O)n2Cc1ccccc1` [Example 110, 9-Benzyl-8-hydroxy-2-(morpholinocarbonylmethyl)adenine], for which the minimal effective concentration came out at 0.1 µM. Consider `Nc1nc(SCc2ccc(CC(=O)O)cc2)nc2c1nc(O)n2Cc1ccccc1` [compound 37, 9-Benzyl-8-hydroxy-2-[(4-carboxymethylbenzyl)thio]adenine, reference compound], for which the minimal effective concentration turned out to be 1 µM.

Take `CCCCOc1nc(N)c2nc(O)n(Cc3ccc(CC(=O)N(C)C)cc3)c2n1` [Example 78, 2-Butoxy-8-hydroxy-9-(4-dimethylcarbamoylmethylbenzyl)adenine]: the minimal effective concentration came out at 3e-05 µM. The same measure, in the same setting: the value for `Nc1nc(OCC(=O)O)nc2c1nc(O)n2Cc1ccccc1` [compound 16, 9-Benzyl-8-hydroxy-2-calboxylmethoxyadenine, reference compound] was 1 µM.

The values above are taken from patent US8148371B2, “Adenine compound and use thereof” (Dainippon Sumitomo Pharma Co., Ltd., priority 2002, dated 2012).
